This experiment has as its target T1, Nav1.5 (Homo sapiens, UniProt Q14524, F1760A).
T1 construct: gene SCN5A

As to `Cc1cccc(C)c1OCC(C)N` (stereo not shown) [MEXI, mexiletine], the “whole-cell patch clamp of tsA201 cells after 24-h incubation with 100 μM; effect” value was “Nav1.5-F1760A peak INa densities, on the other hand, were significantly enhanced after 24-h incubation with MEXI”.

For the origin of these results see article PMC7618122 (American journal of physiology. Heart and circulatory …, 2025).
